Data: article PMC11878344 (Angewandte Chemie (International Ed. in English), 2025)
Where two headings read alike, the source gives them in different places.

Legend:
[1] = molecular target: T1, NanoLuc luciferase MAGL fusion protein in HEK293A cells (Homo sapiens, UniProt Q99685); experiment: Cellular MAGL NanoBRET target engagement assay; assay type: cell-based
T1 construct: expressed in transfected cells
T1 sequence (Q99685 1-303): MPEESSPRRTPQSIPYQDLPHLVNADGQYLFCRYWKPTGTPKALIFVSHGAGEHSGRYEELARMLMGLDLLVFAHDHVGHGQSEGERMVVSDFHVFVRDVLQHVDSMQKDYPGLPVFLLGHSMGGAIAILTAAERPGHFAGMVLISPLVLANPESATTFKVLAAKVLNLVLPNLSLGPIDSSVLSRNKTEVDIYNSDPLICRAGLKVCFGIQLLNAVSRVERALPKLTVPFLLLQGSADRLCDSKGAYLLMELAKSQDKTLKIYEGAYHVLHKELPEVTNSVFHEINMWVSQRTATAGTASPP
Protocol: We, therefore, confirmed cellular MAGL target engagement in a nanoBRET assay using live HEK293 cells.[39] […] To overcome the low cellular potency of 4, we exploited the modular construction principle to modulate unfavorable physicochemical properties and investigated less polar, privileged head groups[23, 33, 40] (Supporting Information Table S4). […]
This assay was performed as first described before.[39]
Compounds were profiled by a novel cellular MAGL NanoBRET™ Target Engagement assay, which measures the apparent affinity of test compounds by competitive displacement of a Roche-developed Tracer (WO2021058443, Example 21)[21], reversibly bound to a NanoLuc® luciferase MAGL fusion protein in cells.
A HEK293A stable cell line expressing NanoLuc_MAGL was established at Roche and assigned as HEK293A_NanoLuc_MAGL clone #43. A fixed concentration of tracer is added to cells expressing the NanoLuc®_MAGL fusion protein to generate a BRET reporter complex. The introduction of competing compounds results in a dose-dependent decrease in NanoBRET™ energy transfer, which allows quantification of the intracellular affinity of the target protein for the […]
HEK293A_NanoLuc_MAGL clone #43 cells were cultured in DMEM (Gibco 31966) with 10% FBS and 800 ug/ml G418. The NanoBRET assay was performed by seeding 5000 cells/well in Costar low-volume white 384-well plate in assay buffer (1% FBS in HBSS), followed by adding 50 nM final concentration of tracer and serial dilutions of test compounds. After 2 hours of incubation, Nanoluciferase substrates and extracellular inhibitors were added following the manufacturer's protocol (Promega, #N2520), and the NanoBRET signaling were quantified with the Paradigm

mouse MAGL = molecular target: T2, mouse MAGL (Mus musculus, UniProt O35678); experiment: In vitro MAGL inhibition assay (2-AG hydrolysis followed by mass spectrometry); assay type: biochemical
T2 sequence (O35678 1-303): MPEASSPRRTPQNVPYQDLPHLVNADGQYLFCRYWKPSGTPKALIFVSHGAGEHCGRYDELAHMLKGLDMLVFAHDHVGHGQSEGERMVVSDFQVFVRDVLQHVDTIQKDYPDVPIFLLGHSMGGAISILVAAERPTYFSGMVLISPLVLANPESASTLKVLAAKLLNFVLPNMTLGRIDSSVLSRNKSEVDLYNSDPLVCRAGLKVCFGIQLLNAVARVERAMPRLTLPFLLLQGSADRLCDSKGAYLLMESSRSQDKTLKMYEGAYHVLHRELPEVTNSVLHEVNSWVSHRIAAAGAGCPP
Protocol: (§1) 4. Experimental Details of Biochemical Assays and Crystal Structure
(§2) In Vitro MAGL Inhibition Assay
(§3) Compounds were profiled for MAGL inhibitory activity by determining the enzymatic activity by following the hydrolysis of the natural substrate 2-arachidonoylglycerol (2-AG), resulting in arachidonic acid, which can be followed by mass spectrometry. The 2-AG assay was carried out in 384 well assay plates (PP, Greiner Cat# 784201) in a total volume of 20 µL. Compound dilutions were made in 100% DMSO (VWR Chemicals 23500.297) in a polypropylene plate in 3-fold dilution steps to give a final concentration range in the assay from 12.5 µM to 0.8 pM. 0.25µL compound dilutions (100% DMSO) were added to 9 µL MAGL in assay buffer (50 mM TRIS (GIBCO, 15567-027), 1 mM EDTA (Fluka, 03690-100 mL), 0.01% (v/v) Tween. After shaking, the plate was incubated for 15 min at RT. To start the reaction, 10 µL 2-arachidonoylglycerol in assay buffer was added. The final concentrations in the assay were 50 pM MAGL and 8 µM 2-arachidonoylglyerol. After shaking and 30 min incubation at RT, the reaction was quenched by the addition of 40µL of ACN containing 4 µM of d8-arachidonic acid. The amount of arachidonic acid was traced by an online SPE system (Agilent Rapidfire) coupled to a triple quadrupole mass spectrometer (Agilent 6460). A C18 SPE cartridge (G9205A) was used in an ACN/water liquid setup. The mass spectrometer was operated in negative electrospray mode following the mass transitions 303.1 → 259.1 for arachidonic acid and 311.1 → 267.0 for d8-arachidonic acid. The activity of the compounds was calculated based on the ratio of intensities [arachidonic acid / d8- […]
(§4) This assay was performed as first described before.[39] […]

human MAGL = molecular target: T3, human MAGL (Homo sapiens, UniProt Q99685); experiment: as above; assay type: biochemical
T3 sequence (Q99685 1-303): T1 sequence (Q99685 1-303)
Protocol: as §1, §2, §3, §4

Cyno MAGL = Cyno MAGL (Macaca fascicularis, UniProt A0A2K5V664); experiment: In vitro MAGL inhibition assay; assay type: biochemical, cynomolgus monkey; settings: Supporting Information Table S4
Protocol: as §1, §2
Compounds were profiled for MAGL inhibitory activity by determining the enzymatic activity by following the hydrolysis of the natural substrate 2-arachidonoylglycerol (2-AG), resulting in arachidonic acid, which can be followed by mass spectrometry. The 2-AG assay was carried out in 384 well assay plates (PP, Greiner Cat# 784201) in a total volume of 20 µL. Compound dilutions were made in 100% DMSO (VWR Chemicals 23500.297) in a polypropylene plate in 3-fold dilution steps to give a final concentration range in the assay from 12.5 µM to 0.8 pM. […] The activity of the compounds was calculated based on the ratio of intensities [arachidonic acid / d8- […]

[2] = Fluorescence excitation/absorption and emission maxima; assay type: physicochemical; settings: PBS pH 7.4
Excerpt: Figure S8. Fluorescence excitation and emission spectra of the utilized fluorescent reporters in PBS pH 7.4. Spectra l differences between probes carrying the same fluorophore were […]
Table S6. Fluorescence excitation, emission maxima, and Stokes-shift in PBS pH 7.4 for the used fluorophores, respectively. difference s between probes with the same fluorophore were […]
λmax Excitation [nm] λmax Emission [nm] Stokes-shift [nm]
(1 picture or pasted object on this page, not shown here)

MAGL = test system: MAGL; design: method as in PMID 35089028, PMID 34764251, PMID 34328319, PMID 29498843; settings: known MAGL ligands of Figure 1; cited from earlier work
[3] = Table 1, transfected HEK293 cells, n=1 to 3, read-out: HEK293 nanoBRET IC50
[4] = Table 1, n=1 to 3, read-out: mMAGL IC50
[5] = Table 1, n=1 to 3, read-out: hMAGL IC50
[6] = Supporting Information Tables S1-S5, read-out: IC50 mMAGL
[7] = Supporting Information Tables S1-S5, read-out: IC50 hMAGL
[8] = Table 2, mean of three independent measurements ± SD, read-out: HEK 293 nanoBRET IC50±SD
[9] = Table 2, mean of three independent measurements ± SD, read-out: mMAGL IC50±SD
[10] = Table 2, mean of three independent measurements ± SD, read-out: hMAGL IC50±SD

Chain of Cyno MAGL (A0A2K5V664 entry or part of it): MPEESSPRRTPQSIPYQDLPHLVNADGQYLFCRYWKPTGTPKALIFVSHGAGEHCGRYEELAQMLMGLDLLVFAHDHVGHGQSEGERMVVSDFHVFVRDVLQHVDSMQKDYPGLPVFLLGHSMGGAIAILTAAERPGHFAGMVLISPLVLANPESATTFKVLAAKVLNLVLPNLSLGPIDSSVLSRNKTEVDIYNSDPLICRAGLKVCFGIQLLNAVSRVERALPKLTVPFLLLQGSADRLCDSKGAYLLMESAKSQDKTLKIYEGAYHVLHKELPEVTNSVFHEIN

SMILES | IC50 [1, 3] [nM] | IC50 (mouse MAGL; [4]) [nM] | IC50 (human MAGL; [5]) [nM] | IC50 (mouse MAGL; [6]) [nM] | IC50 (human MAGL; [7]) [nM] | other results
O=C1CO[C@H]2CCN(C(=O)N3CC(COCc4ccccc4)C3)C[C@H]2N1 [Compound 1] | > 10000 | 526 | 379 | – | – | –
O=C1CO[C@H]2CCN(C(=O)N3CC(COCc4cccc(OCCNC(=O)OCc5ccccc5)c4)C3)C[C@H]2N1 [Compound 2] | 406 | 97.4 | 30.8 | 97 | 31 | –
O=C1CO[C@H]2CCN(C(=O)N3CC(COCc4ccccc4OCCNC(=O)OCc4ccccc4)C3)C[C@H]2N1 [Compound 3] | 141 | 5.41 | 2.14 | 5 | 2 | –
O=C(NCCOc1ccccc1COCC1CN(C(=O)N2CC3(COC(=O)N3)C2)C1)OCc1ccccc1 [Compound 5] | 61 | 0.59 | 0.29 | – | – | IC50 (Cyno MAGL): 0.094 nM
O=C1NC2(CO1)CN(C(=O)N1CC(COCc3ccccc3OCCNc3ccc([N+](=O)[O-])c4nonc34)C1)C2 [Compound 6] | 318 | 1.03 | 0.72 | – | – | –
O=C(NCCOc1ccccc1COCC1CN(C(=O)OC(C(F)(F)F)C(F)(F)F)C1)OCc1ccccc1 [Compound 7] | 222 | 0.85 | 0.65 | – | – | –
O=C1NC2(CO1)CN(C(=O)N1CC3(CC(Cc4ccccc4OCCNc4ccc([N+](=O)[O-])c5c4NON5)C3)C1)C2 [Compound 8] | 307 | 0.11 | 0.09 | 0.138 | 0.124 | λmax Em (fluorescence emission maximum) [2]: 554 nm; λmax Ex (fluorescence excitation maximum) [2]: 479 nm; IC50 [1, 8]: 308 ± 114 nM; IC50 (mouse MAGL; [9]): 0.12 ± 0.04 nM; IC50 (human MAGL; [10]): 0.09 ± 0.03 nM
C#CCCCC(=O)NCCOc1ccccc1CC1CC2(C1)CN(C(=O)OC(C(F)(F)F)C(F)(F)F)C2 [Compound 13] | – | – | – | – | – | IC50 [1, 8]: 99 ± 23 nM; IC50 (mouse MAGL; [9]): 0.13 ± 0.05 nM; IC50 (human MAGL; [10]): 0.14 ± 0.04 nM
O=C(NCCCCCOc1ccccc1CC1CC2(C1)CN(C(=O)O[C@H](CO)C(F)(F)F)C2)O[C@H]1CC/C=C/CCC1 [Compound 14] | – | – | – | – | – | IC50 [1, 8]: 1250 ± 507 nM; IC50 (mouse MAGL; [9]): 0.42 ± 0.17 nM; IC50 (human MAGL; [10]): 0.31 ± 0.13 nM
Cc1ccc(C(c2ccccc2)C2CCN(C(=O)N3CCC4OCC(=O)NC4C3)CC2)cc1 (stereo not drawn) [Compound 85] | – | – | – | – | – | IC50 (MAGL): 0.1 nM

The next lines start with results.

IC50 [1, 3] [nM] | IC50 (mouse MAGL; [4]) [nM] | IC50 (human MAGL; [5]) [nM] | IC50 (mouse MAGL; [6]) [nM] | IC50 (human MAGL; [7]) [nM] | SMILES | other results
– | – | – | – | 70 | O=C1CO[C@H]2CCN(C(=O)N3CC(OCc4ccccc4OCCNC(=O)OCc4ccccc4)C3)C[C@H]2N1 [Compound S1] | –
– | – | – | 38 | 11 | O=C1CO[C@H]2CCN(C(=O)N3CC4(CC(OCc5ccccc5OCCNC(=O)OCc5ccccc5)C4)C3)C[C@H]2N1 [Compound S3] | –
– | – | – | 38 | 15 | O=C1CO[C@H]2CCN(C(=O)N3CC4(CCC(OCc5ccccc5OCCNC(=O)OCc5ccccc5)CC4)C3)C[C@H]2N1 [Compound S4] | –
– | – | – | 21 | 7 | O=C1CO[C@H]2CCN(C(=O)N3CCC4(CC3)CC(OCc3ccccc3OCCNC(=O)OCc3ccccc3)C4)C[C@H]2N1 [Compound S5] | –
– | – | – | 315 | 97 | O=C1CO[C@H]2CCN(C(=O)N3C[C@@H]4C(COCc5ccccc5OCCNC(=O)OCc5ccccc5)[C@@H]4C3)C[C@H]2N1 (stereo partly drawn) [Compound S6] | –
– | – | – | 7 | 3 | O=C1CO[C@H]2CCN(C(=O)N3CC(COCc4ccccc4OCCCNC(=O)OCc4ccccc4)C3)C[C@H]2N1 [Compound S7] | –
– | – | – | 144 | 46 | O=C1CO[C@H]2CCN(C(=O)N3CC(COCc4ccccc4OCCCCCNC(=O)OCc4ccccc4)C3)C[C@H]2N1 [Compound S8] | –
– | – | – | 38 | 44 | O=C1CO[C@H]2CCN(C(=O)N3CC(OCc4cccc(OCCNC(=O)OCc5ccccc5)c4)C3)C[C@H]2N1 [Compound S9] | –
– | – | – | 76 | 28 | O=C1CO[C@H]2CCN(C(=O)N3CC4(CC(OCc5cccc(OCCNC(=O)OCc6ccccc6)c5)C4)C3)C[C@H]2N1 [Compound S11] | –
– | – | – | 35 | 7.5 | O=C1COc2ccc(C(=O)N3CC(COCc4ccccc4OCCNC(=O)OCc4ccccc4)C3)cc2N1 [Compound S18] | –
– | – | – | 66 | 9.2 | O=C(NCCOc1ccccc1COCC1CN(C(=O)CC[C@@H]2COC(=O)N2)C1)OCc1ccccc1 [Compound S19] | –
– | – | – | 0.119 | 0.122 | CN1/C(=C\C=C\C2=[N+](CCCCCC(=O)NCCOc3ccccc3CC3CC4(C3)CN(C(=O)N3CC5(COC(=O)N5)C3)C4)c3ccccc3C2(C)C)C(C)(C)c2ccccc21 [Compound S21] | –
